Test results reported in patent US20110105436A1, “HETEROARYL COMPOUNDS, COMPOSITIONS, AND METHODS OF USE IN CANCER TREATMENT” (AUCKLAND UNISERVICES LIMITED, priority 2008, published 2011).
“Also recorded” adds a separate entry of the source.

How the values were obtained:
LC3 = LC3 processing by Western blot and immunostaining; type: cell-based; settings: STF-62247 treatment, FIG. 2D, 2E
Method: Western blot analysis. After treatments, cells were lysed in urea buffer (9M urea, 75 mM Tris (pH 7.5), 150 mM b-mercaptoethanol), placed on ice for 10 minutes and sonicated briefly (15 seconds). Extracts were centrifugated at 8,000×g for 10 minutes to eliminate insoluble material. Lysates were quantitated using Bio-Rad protein Assay (Bio-Rad Laboratories) and 20-30 μg of proteins were separated on a 7.5% or 15% bis-acrylamide gels and then transferred onto PVDF membranes. Proteins were visualized using HIF-2α (Novus Biological), HIF-1α, pVHL and BiP (BD Biosciences), LC3 (MBL), Atg5, or α-tubulin antibodies.
Immunofluorescence staining. Cells were seeded on glass coverslips and at subconfluence, STF-62247 was added at 1.25 μM for RCC4 and 3.75 μM for SN12C. After 20 hours, cells were fixed in 3.7% formaldehyde for 10 min at room temperature and washed in PBS. Then cells were permeabilized in 0.2% Triton X-100 for 5 min at room temperature and washed in PBS. The coverslips were incubated with primary antibody LC3 diluted 1:500 in PBS containing 0.2% BSA for 1 hour at room temperature. Cells were washed three times in PBS-BSA and the bound primary antibody was detected using a fluorescein-conjugated secondary antibody (ALEXA) diluted 1:500 in PBS-BSA and incubated for 1 hour. Coverslips were washed and mounted in mounting medium from Vector Laboratories according to the manufacturer's instructions. Cells were examined with a confocal microscope
A. Phase contrast pictures of VHL-deficient RCC4 and SN12C-VHL shRNA cells and VHL-positive cells RCC4 and SN12C after 20 hrs of 1.25 μM STF-62247. B. Immunostaining for LC3 following STF-62247 treatment at 1.25 μM for 20 hrs with or without 2 mM of 3-MA in RCC4 with and without VHL cells. After treatment, cells were fixed, permeabilized and processed for the detection of punctuate staining by indirect immunofluorescence. C. Autophagic vacuoles stained with monodansylcadaverine (MDC). After STF-62247 treatment in the same conditions, MDC was added for the last 10 minutes. Cells were fixed, washed with PBS and observed directly under microscope. D. Western blot for LC3 in RCC4, RCC4/VHL, SN12C, and SN12C-VHL shRNA cells after STF-62247 treatment with or without 3-MA. Nutrient starvation (EBSS) is used as positive control. E. Western blot for LC3 in RCC4 and RCC4/VHL with different concentrations of STF-62247. Tubulin was used as loading control. F. Cell viability assay in VHL-deficient RCC4 and wild-type VHL cells treated with 1 mM of 3-MA, 1.25 μM of STF-62247 alone or in combination for 24 hrs. Viability is measured by trypan blue exclusion assay and is represented by the average of three different experiments in duplicate as the percent of treated on untreated cells. The error bars are represented as SEM.
A. VHL-deficient RCC4 and wild-type VHL were incubated in presence of 10 μM LY294002, or 1 μg/mlBrefeldin A with 1.25 μM of STF-62247 for 20 hrs and the presence of vacuoles was examined under light microscopy. B,C. LC3 processing was evaluated by Western blot after the treatment with Brefeldin A or LY294002 in presence or absence of STF-62247 as described above. Tubulin was used as loading control. D. Cells were treated with 1.25 μM of STF-62247 with or without 2 mM of 3-MA, 1 μg/ml of Brefeldin A for 20 hrs. For the last 15 min, acidic components were stained with 1 μg/ml of acridine orange and visualized under fluorescence microscope. […] F. Quantification of the FACS analysis. The data are calculated as the average of three different experiments as relative units of treated over untreated cells. The error bars are represented as the standard error of the mean (SEM).
B,C. LC3 processing was evaluated by Western blot after the treatment with U0126 or tunicamycin in presence or absence of STF-62247 as described above. Tubulin was used as loading control.

SN12C tumors = test: Tumor growth of SN12C cells (wild-type VHL) in scid mice; type: in vivo; settings: daily intraperitoneal treatment, FIG. 1E
Method: In vivo studies. 2−3×10^6 SN12C and SN12C-VHL shRNA cells were injected in male scid mice 4-6 weeks old. When tumor volume reached 150 mm^3, mice were randomized into vehicle control group or STF-62247 treatment group. Mice were treated every day with […] of STF-62247 intraperitoneally. Tumor growth was measured every 2-3 days after the drug treatment was started.
A. RCC4 and RCC4/VHL cells were labeled with EYFP and the effect of STF-62247 was monitored by fluorescence in each cell type separately. Cells are pseudocolored. B. Clonogenic assay in RCC4, RCC4/VHL, SN12C, SN12C-VHL shRNA cells in the presence of STF-62247 (0-30 μM). Each point of the cell survival is calculated by the average of three different experiments in triplicate as the percent of treated on untreated plate. The error bars represented the standard error of the mean (SEM). C. Upper Panel, clonogenic assay in RCC4 infected with HIF-1α or HIF-2α shRNA by retroviral infection in presence of drug in same conditions described above. Bottom panel, HIF-1α or HIF-2α protein expression evaluated by western blot in RCC4 cells with HIF-1α or HIF-2α shRNA. Tubulin is used as loading control. […] Tumor volume was measured every 2-3 days and data are represented in fold. Five tumors in each condition were analyzed where * p<0.05, **p<0.01 and ***p<0.005.

## Cc1cccc(Nc2nc(-c3ccncc3)cs2)c1 [Compound 5, N-(3-Methylphenyl)-4-(4-pyridinyl)-1,3-thiazol-2-amine]
LC3
  LC3-II (lipidated form): induced by STF-62247 treatment; also recorded: increases in a concentration-dependent manner
SN12C tumors
  tumor growth: did not have any effect on the growth of SN12C tumor cells that have wild-type VHL
